# Laboratory results as given in US20240009170A1, “INHIBITION OF GLYCOGEN SYNTHASE KINASE-3 (GSK-3)” (Brown University, priority 2020, published 2024).
# Like-named read-outs stand apart in the source and are kept apart here.
# How the values were obtained:
# TALL-104 cells = assay: Cytokine profile of immune cell culture supernatant, TALL-104; format: cell-based, Human; conditions: 1 μM, 48 hours
# Method: Collection of cell culture supernatants used in cytokine measurements. Cells were plated at 3.5×10^4 cells in a 48-well plate (Thermo Fisher Scientific, Waltham, MA, USA) in complete medium and incubated at 37° C. with 5% CO2. At twenty-four hours after plating, almost all the tumor cells were adherent to the bottom of the flask and the complete medium was replaced with drug-containing medium. Subsequently, the culture supernatants were collected after forty-eight hours of incubation and were frozen at −80° C. until the measurement of cytokines was performed. The day of analysis, samples were thawed and centrifuged to remove cellular debris.
# Human cytokine profiling. Human cell line culture supernatants were analyzed using an R&D systems Human Premixed Multi-Analyte Kit (R&D Systems, Inc., Minneapolis, MN, USA) and a Luminex 200 Instrument (LX200-XPON-RUO, Luminex Corporation, Austin, TX, USA) according to the manufacturer's instructions. […]
# 9-ING-41 increases secreted cytotoxic proteins IFN-v, Granzyme B, and TRAIL in immune cells. […] Here, the inventors determined how 9-ING-41 treatment impacts the immune cell cytokinome. […]
# [1] = system: HCT-116 colorectal cancer cells; assay: Western blot analysis, HCT-116; format: cell-based, Human
# Method: (§1) Western blot analysis. Cells were plated in a 6-well plate and incubated overnight before the spent media was replaced with drugged media. Drug treatment lasted for indicated durations. Protein was extracted using radioimmunoprecipitation (RIPA) assay buffer (Cat #R0278, Sigma-Aldrich, St. Louis, MO) containing cOmplete™ Mini, EDTA-free Protease Inhibitor Cocktail (Cat #4693159001, Roche, Basel, Switzerland). Denaturing sample buffer was added, samples were boiled at 95 degrees for 10 minutes. An equal amount of protein lysate was electrophoresed through NuPAGE™ 4 to 12%, Bis-Tris, 1.5 mm, Mini Protein Gels (Invitrogen, Waltham, MA, USA) then transferred to PVDF membranes. The PVDF membrane was blocked with 5% non-fat milk (Sigma-Aldrich, St. Louis, MO, USA) in 1× TTBS. Primary antibodies were incubated with the transferred PVDF membrane in blocking buffer at 4° C. overnight. Secondary antibodies used included goat anti-rabbit IgG (H+L) secondary antibody, HRP (Cat #31460, Invitrogen, Waltham, MA, USA) and goat anti-mouse IgG (H+L) secondary antibody, HRP (Cat #31430, Invitrogen, Waltham, MA, USA). Signal was detected using a Syngene Imaging System.
# (§2) 9-ING-41 treatment decreases survival factor expression while increasing PD-L1 levels in colorectal cancer cell lines. To elucidate the mechanism behind the differential effects of 9-ING-41 on either colorectal cancer or immune cells in co-culture and cytokine profiling assays, the inventors performed Western blot analyses on tumor and immune cells treated with 9-ING-41 over a 72-hour time course.
# (§3) Treating cells from colorectal cancer cell lines with 1 μM 9-ING-41 decreases Surivin, NF-κB p65, and IκBα while increasing PD-L1 levels in, 9-ING-41 treatment of immune cells increases NIK. Western blot analysis of HCT-116 and HT-29 colorectal cancer cells for expression of indicated proteins after increasing durations of 9-ING-41 treatment (0-72 hours). Western blot analysis of TALL-104 T cells for expression of indicated proteins after increasing durations of 9-ING-41 treatment (0-72 hours). Analysis of Mcl-1 expression in HCT-116 colorectal cancer cells and NK-92 natural killer cells after increasing durations of 9-ING-41 treatment.
# [2] = system: NK-92 natural killer cells; assay: Western blot analysis of Mcl-1, NK-92; format: cell-based, Human; conditions: through the 48-hour endpoint
# Method: as §1
# Treating cells from colorectal cancer cell lines with 1 μM 9-ING-41 decreases Surivin, NF-κB p65, and IκBα while increasing PD-L1 levels in, 9-ING-41 treatment of immune cells increases NIK. […]
# GSK-3 = conditions: cited from earlier work
# [3] = system: prostate cancer cell lines; conditions: cited from earlier work
# pulmonary fibrosis = conditions: cited from earlier work
# [4] = system: HT-29 colorectal cancer cells; assay: Western blot analysis, HT-29; format: cell-based, Human
# Method: as §1, §2
# as §3, with “Analysis of Mcl-1 expression in HCT-116 colorectal cancer cells and NK-92 natural killer cells after increasing durations of 9-ING-41 treatment.” left out
# [5] = system: HCT-116 colorectal cancer cells; assay: Co-culture of HCT-116 and NK-92 cells with or without αPD-1 therapy; format: cell-based, Human; conditions: 9-ING-41+NK-92
# Method: Immune cell co-culture experiments. Co-culture experiments were conducted with GFP+ SW480 or HCT-116 colorectal cancer cells and either NK-92 natural killer cells or TALL-104 T cells in a 48-well plate, in the presence or absence of 9-ING-41. HCT-116 cells were labeled using CellTracker™ Green CMFDA (5-chloromethylfluorescein diacetate), immune cells (NK-92, TALL-104) were labeled using CellTracker™ Blue CMAC Dye (7-amino-4-chloromethylcoumarin), and ethidium homodimer-1 (EthD-1) was used as a marker of cell death (Invitrogen, Thermo Fisher Scientific, Waltham, MA, USA).
structure (smiles),measurement,setting,value
Cn1cc(C2=C(c3coc4ccc(F)cc34)C(=O)NC2=O)c2cc3c(cc21)OCO3 [9-ING-41],"IFN-γ, granzyme B, and TRAIL concentrations",TALL-104 cells,increases
same,IKKR,"[1]; 1 μM, 0-72 hours",No changes
same,"Survivin, NF-κB-inducing kinase (NIK), NF-κB, IKBα, pIKBα, and Bcl-2","[1]; 1 μM, by the 72-hour timepoint",decreases
same,cPARP,"[1]; 1 μM, until the 48-hour timepoint",little to no cPARP
same,PD-L1 expression,[1]; as the treatment duration increased,increases
same,Mcl-1 protein expression,[1]; by the 24-hour timepoint,marked decreases
same,Mcl-1 protein expression,[2],did not observe a significant decrease
same,GSK-3 isoforms inhibited,GSK-3,inhibits both α and β isoforms
same,potency compared with other GSK-3 inhibitors,GSK-3,significantly more potent
same,expression of PD-L1,[3],regulated the expression of PD-L1
same,pulmonary fibrosis and pulmonary function,pulmonary fibrosis; models of TGF-β,reduced pulmonary fibrosis and improved pulmonary function
same,pulmonary fibrosis and pulmonary function,pulmonary fibrosis; models of bleomycin pulmonary fibrosis,reduced pulmonary fibrosis and improved pulmonary function
same,IKKβ and Nik,[4]; 0-72 hours,did not change
same,PD-L1,[4]; as treatment duration increased,increased
same,"Survivin, NF-KB, IKBα, pIKBα, and Bcl-2",[4]; by the 72-hour timepoint,decreased
same,benefit over combination αPD-1 therapy+NK-92 only groups,[5],significant benefit
